Experimental data reported in patent US20250324971A1, “HERBICIDAL DERIVATIVES” (SYNGENTA CROP PROTECTION AG, priority 2022, published 2025).

Tests used:
Type in all cases: in vivo
Setaria faberi (SETFA) [1] = assay: Pre-Emergence Test (herbicidal, glasshouse pots); details: evaluated after 13 days, five-point scale
[2] = system: Ipomoea hederacea (IPOHE); assay: Pre-Emergence Test (herbicidal, glasshouse pots); details: evaluated after 13 days, five-point scale
[3] = system: Echinochloa crus-galli (ECHCG); assay: Pre-Emergence Test (herbicidal, glasshouse pots); details: evaluated after 13 days, five-point scale
[4] = system: Amaranthus retoflexus (AMARE); assay: Pre-Emergence Test (herbicidal, glasshouse pots); details: evaluated after 13 days, five-point scale
Zea mays (ZEAMX) [5] = assay: Pre-Emergence Test (herbicidal, glasshouse pots); details: evaluated after 13 days, five-point scale
[6] = system: Amaranthus palmeri (AMAPA); assay: Pre-Emergence Test (herbicidal, glasshouse pots); details: evaluated after 13 days, five-point scale
[7] = system: Amaranthus palmeri (AMAPA); assay: Post-Emergence Test (herbicidal, glasshouse pots); details: evaluated after 13 days
Procedure, shortened: (§1)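 Seeds were sown in standard soil in pots, sprayed at the stated g/ha with an acetone/water (50:50) solution containing 0.5% Tween 20, and kept in a glasshouse (24° C./16° C. day/night, 14 hours light, 65% humidity). Percentage plant damage was scored 13 days later on a five-point scale.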

[8] = system: Amaranthus retoflexus (AMARE); assay: Post-Emergence Test (herbicidal, glasshouse pots); details: evaluated after 13 days
Procedure, shortened: as §1

[9] = system: Echinochloa crus-galli (ECHCG); assay: Post-Emergence Test (herbicidal, glasshouse pots); details: evaluated after 13 days
Procedure, shortened: as §1

[10] = system: Ipomoea hederacea (IPOHE); assay: Post-Emergence Test (herbicidal, glasshouse pots); details: evaluated after 13 days
Procedure, shortened: as §1

Setaria faberi (SETFA) [11] = assay: Post-Emergence Test (herbicidal, glasshouse pots); details: evaluated after 13 days
Procedure, shortened: as §1

Zea mays (ZEAMX) [12] = assay: Post-Emergence Test (herbicidal, glasshouse pots); details: evaluated after 13 days
Procedure, shortened: as §1

Row | Structure (SMILES) | percentage damage caused to the plant, SETFA (Setaria faberi (SETFA) [1]; rate 250 g/ha) | percentage damage caused to the plant, IPHOE ([2]; rate 250 g/ha) | percentage damage caused to the plant, ECHCG ([3]; rate 250 g/ha) | percentage damage caused to the plant, AMARE ([4]; rate 250 g/ha) | percentage damage caused to the plant, ZEAMX (Zea mays (ZEAMX) [5]; rate 250 g/ha) | percentage damage caused to the plant, AMAPA ([6]; rate 250 g/ha) | Post-Emergence Test AMAPA percentage damage (five-point scale) ([7]; rate 250 g/ha) | Post-Emergence Test AMARE percentage damage (five-point scale) ([8]; rate 250 g/ha) | Post-Emergence Test ECHCG percentage damage (five-point scale) ([9]; rate 250 g/ha) | Post-Emergence Test IPHOE percentage damage (five-point scale) ([10]; rate 250 g/ha) | Post-Emergence Test SETFA percentage damage (five-point scale) (Setaria faberi (SETFA) [11]; rate 250 g/ha) | Post-Emergence Test ZEAMX percentage damage (five-point scale) (Zea mays (ZEAMX) [12]; rate 250 g/ha) | percentage damage caused to the plant, SETFA (Setaria faberi (SETFA) [1]; rate 1000 g/ha) | percentage damage caused to the plant, IPHOE ([2]; rate 1000 g/ha) | percentage damage caused to the plant, ECHCG ([3]; rate 1000 g/ha) | percentage damage caused to the plant, AMARE ([4]; rate 1000 g/ha) | percentage damage caused to the plant, ZEAMX (Zea mays (ZEAMX) [5]; rate 1000 g/ha) | percentage damage caused to the plant, AMAPA ([6]; rate 1000 g/ha) | Post-Emergence Test AMAPA percentage damage (five-point scale) ([7]; rate 1000 g/ha) | Post-Emergence Test AMARE percentage damage (five-point scale) ([8]; rate 1000 g/ha) | further results
1 | CCn1c(Oc2ccc(C)c(F)c2)cc(=O)c(C(=O)O)c1-c1ccc(Cl)c(Cl)c1 [Compound 41, 2-(3,4-dichlorophenyl)-1-ethyl-6-(3-fluoro-4-methyl-phenoxy)-4-oxo-pyridine-3-carboxylic acid] | 0 | 2 (2=21-40%) | 0 | 1 (1=0-20%) | 0 | 0 | 2 (2=21-40%) | 2 (2=21-40%) | 1 (1=0-20%) | 3 (3=41-60%) | 1 (1=0-20%) | 0 |  |  |  |  |  |  |  |  | 
2 | CCn1c(Oc2ccc(OC)c(OC)c2)cc(=O)c(C(=O)O)c1-c1ccc(Cl)c(Cl)c1 [Compound 21, 2-(3,4-dichlorophenyl)-6-(3,4-dimethoxyphenoxy)-1-ethyl-4-oxo-pyridine-3-carboxylic acid] |  |  |  |  |  |  |  |  |  |  |  |  | 4 (4=61-80%) | 3 (3=41-60%) | 2 (2=21-40%) | 1 (1=0-20%) | 1 (1=0-20%) | 1 (1=0-20%) | 3 (3=41-60%) | 4 (4=61-80%) | Post-Emergence Test ECHCG percentage damage (five-point scale) ([9]; rate 1000 g/ha): 1 (1=0-20%); Post-Emergence Test IPHOE percentage damage (five-point scale) ([10]; rate 1000 g/ha): 3 (3=41-60%); Post-Emergence Test SETFA percentage damage (five-point scale) (Setaria faberi (SETFA) [11]; rate 1000 g/ha): 5 (5=81-100%); Post-Emergence Test ZEAMX percentage damage (five-point scale) (Zea mays (ZEAMX) [12]; rate 1000 g/ha): 1 (1=0-20%)
3 | CCn1c(Oc2cc(C(F)F)n(C)n2)cc(=O)c(C(=O)O)c1-c1ccc(Cl)c(Cl)c1 [Compound 56, 2-(3,4-dichlorophenyl)-6-[5-(difluoromethyl)-1-methyl-pyrazol-3-yl]oxy-1-ethyl-4-oxo-pyridine-3-carboxylic acid] |  |  |  |  |  |  |  |  |  |  |  |  |  |  |  |  |  |  |  |  | percentage damage caused to the plant, SETFA (Setaria faberi (SETFA) [1]; rate 62.5 g/ha): 1 (1=0-20%); percentage damage caused to the plant, IPHOE ([2]; rate 62.5 g/ha): 0; percentage damage caused to the plant, ECHCG ([3]; rate 62.5 g/ha): 0; percentage damage caused to the plant, AMARE ([4]; rate 62.5 g/ha): 0; percentage damage caused to the plant, ZEAMX (Zea mays (ZEAMX) [5]; rate 62.5 g/ha): 0; percentage damage caused to the plant, AMAPA ([6]; rate 62.5 g/ha): 0; Post-Emergence Test AMAPA percentage damage (five-point scale) ([7]; rate 62.5 g/ha): 3 (3=41-60%); Post-Emergence Test AMARE percentage damage (five-point scale) ([8]; rate 62.5 g/ha): 2 (2=21-40%); Post-Emergence Test ECHCG percentage damage (five-point scale) ([9]; rate 62.5 g/ha): 2 (2=21-40%); Post-Emergence Test IPHOE percentage damage (five-point scale) ([10]; rate 62.5 g/ha): 3 (3=41-60%); Post-Emergence Test SETFA percentage damage (five-point scale) (Setaria faberi (SETFA) [11]; rate 62.5 g/ha): 3 (3=41-60%); Post-Emergence Test ZEAMX percentage damage (five-point scale) (Zea mays (ZEAMX) [12]; rate 62.5 g/ha): 0
4 | CCn1c(Oc2ccc(F)c(F)c2)cc(=O)c(C(=O)O)c1-c1ccc(C#N)c(Cl)c1 [Compound 76] | 5 (5=81-100%) | 1 (1=0-20%) | 4 (4=61-80%) | 2 (2=21-40%) | 5 (5=81-100%) | 2 (2=21-40%) | 3 (3=41-60%) | 4 (4=61-80%) | 3 (3=41-60%) | 4 (4=61-80%) | 4 (4=61-80%) | 4 (4=61-80%) |  |  |  |  |  |  |  |  | 
5 | CCn1c(Oc2ccc(F)cc2)cc(=O)c(C(=O)O)c1-c1ccc(Cl)c(Cl)c1 [Compound 4, 2-(3,4-dichlorophenyl)-1-ethyl-6-(4-fluorophenoxy)-4-oxo-pyridine-3-carboxylic acid] |  |  |  |  |  |  |  |  |  |  |  |  | 5 (5=81-100%) | 4 (4=61-80%) | 5 (5=81-100%) | 3 (3=41-60%) | 3 (3=41-60%) | 3 (3=41-60%) | 4 (4=61-80%) | 4 (4=61-80%) | Post-Emergence Test ECHCG percentage damage (five-point scale) ([9]; rate 1000 g/ha): 4 (4=61-80%); Post-Emergence Test IPHOE percentage damage (five-point scale) ([10]; rate 1000 g/ha): 3 (3=41-60%); Post-Emergence Test SETFA percentage damage (five-point scale) (Setaria faberi (SETFA) [11]; rate 1000 g/ha): 4 (4=61-80%); Post-Emergence Test ZEAMX percentage damage (five-point scale) (Zea mays (ZEAMX) [12]; rate 1000 g/ha): 3 (3=41-60%)
6 | CCn1c(Oc2ccc(C)c(F)c2)cc(=O)c(C(=O)O)c1-c1ccc(C#N)c(Cl)c1 [Compound 73, 2-(3-chloro-4-cyano-phenyl)-1-ethyl-6-(3-fluoro-4-methyl-phenoxy)-4-oxo-pyridine-3-carboxylic acid] | 5 (5=81-100%) | 4 (4=61-80%) | 4 (4=61-80%) | 1 (1=0-20%) | 2 (2=21-40%) | 1 (1=0-20%) | 1 (1=0-20%) | 1 (1=0-20%) | 4 (4=61-80%) | 4 (4=61-80%) | 3 (3=41-60%) | 4 (4=61-80%) |  |  |  |  |  |  |  |  | 
